The structures appear in SMILES notation. Like-named read-outs stand apart in the source and are kept apart here.

In assay [1] the test system is secreted IL-8 by whole blood activated with TNF-α. Put plainly: Inhibition of TNF-α induced IL-8 in 50% human whole blood. The class given is cell-based. The protocol: Inhibition of TNF-α Induced IL-8 in 50% Human Whole Blood
Test compounds were evaluated in vitro for the ability to inhibit the production of secreted IL-8 by whole blood activated with TNF-α. Fresh human whole blood was obtained from healthy, non-medicated volunteers in sodium heparin tubes.
Compound Dilution—Assay Procedure
Test compounds are serially diluted 1:3 in DMSO and then diluted 1:250 into R10 (RPMI 1640, 10% human serum AB, 1× pen/strep/glutamine) to the 4× working concentration to be used in the assay. 100 ul heparinized whole blood is plated into wells of 96 well flat bottom plates. 50 ul of either 4× compound or DMSO control (Final DMSO concentration is 0.1%) are added to the appropriate wells. Plates are incubated for 1 hour at 37 degrees Celsius. 50 ul of 4× TNF-α (4 nM TNF-α, for a final concentration of 1 nM) or control (media alone) is added to the appropriate wells (Total volume=200 ul). Plates are incubated overnight (16-18 hours). 100 ul of supernatant is collected and stored in 96-well round bottom polypropylene plates at −80 degrees Celsius or assayed immediately for IL-8.
Cytokines are measured on antibody (Ab) sandwich ECL based 96-well detection plates. 20 ul of supernatant are added to plate and plate is sealed and shaken at RT for 1 hour. 130 ul of detection Ab cocktail is added and plates are sealed and shaken for 1 hour in the dark at RT. Plates are read on MSD Sector HTS instrument. Data are analyzed and IC50 values generated using Activity Base and Xl-fit programs.

For the next assay, the target named is recombinant human p38α (Homo sapiens, UniProt Q16539). The assay can be described thus: Purified and activated recombinant human p38α HTRF assay. The class given is biochemical. Particulars: 1 nM p38α, 50 μM ATP, 100 nM GST-ATF2-Avitag, read-out: p3a IC550. The protocol:
Purified and Activated Recombinant Human p38α Assay
• Kinase Reaction Buffer: Kinase reaction buffer for p38α HTRF assays consists of 50 mM Tris-pH 7.5, 5 mM MgCl2, 0.1 mg/mL BSA, 100 μM Na3VO4 and 0.5 mM DTT. • HTRF Detection Buffer: HTRF detection buffer contains 100 mM HEPES-pH 7.5, 100 mM NaCl, 0.1% BSA, 0.05% Tween-20, and 10 mM EDTA. • Serial Dilution of Compounds: Compounds were dissolved in 100% DMSO and serially diluted (3 fold, 10 point) in a polypropylene 96-well microtiter plate (drug plate). The final starting concentration of compounds in the p38a enzymatic assays was 1 μM. Columns 6 and 12 (HI controls and LO controls respectively) in the drug plate were reserved as controls and contained only DMSO. • Kinase Reaction: The p38α kinase reactions were carried out in a polypropylene 96-well black round bottom assay plate in total volume of 30 μL kinase reaction buffer. Appropriate concentration of purified and activated enzyme (recombinant human) was mixed with indicated concentration of ATP and 100 nM GST-ATF2-Avitag, in the presence or absence (HI control) of Compound. See table below for actual concentrations. In the absence of substrate, the background was measured as LO control. The reaction was allowed to incubate for 1 hour at RT. • Assay Reagent Concentrations: The final reagent concentrations were 1 nM p38α and 50 μM ATP. […] After 60 minutes incubation at room temperature, the assay plate was read in a Discovery Plate Reader. The wells were excited with coherent 320 nm light and the ratio of delayed ([…] post excitation) emissions at […] (native europium fluorescence) and 665 nm (europium fluorescence transferred to allophycocyanin—an index of substrate phosphorylation) was determined (Park et al, 1999). • Data Analysis: The proportion of substrate phosphorylated in the kinase reaction in the presence of compound compared with that phosphorylated in the presence of DMSO vehicle alone (HI control) was calculated using the formula: % control (POC)=(compound−average LO)/(average HI−average LO)*100. Data (consisting of POC and inhibitor concentration in μM) was fitted to a 4-parameter equation (y=A+((B−A)/(1+((x/C)AD))), where A is the minimum y (POC) value, B is the maximum y (POC), C is the x (compound concentration) at the point of inflection and D is the slope factor, using a Levenburg-Marquardt non-linear regression algorithm.
The inhibition constant (Ki) of the inhibitor was estimated from the IC50 (compound concentration at the point of inflection C) using the Cheng-Prussof equation: Ki=IC50/(1+S/Km), where S is the ATP substrate concentration, and Km is the Michaelis constant for ATP as determined experimentally. All results were expressed as the mean± the standard error of the mean. Data acquisition and non-linear regression algorithms were performed using Activity Base v5.2 and XL-fit software v4.1 respectively. All data was archived using Activity Base v5.2 software.

Assay [2] relates to TNF-α secretion by LPS-treated THP1 cells. Put plainly: Lipopolysaccharide-activated THP1 cell TNF production assay. The class given is cell-based. Particulars: Homo sapiens, THP-1, 3 hours, read-out: IC50 in the THP-1 cellular TNF production assay. The method, then:
Lipopolysaccharide-Activated THP1 Cell TNF Production Assay
THP1 cells were resuspended in fresh THP1 media (RPMI 1640, 10% heat-inactivated FBS, 1×PGS, 1×NEAA, plus 30 μM βME) at a concentration of 1.5×10^6 cells per mL. One hundred microliters of cells per well were plated in a polystyrene 96-well tissue culture plate. 1.5 micrograms per mL of bacterial LPS was prepared in THP1 media and transferred to the first 11 columns of a 96-well polypropylene plate. Column 12 contained only THP1 media for the LO control. Compounds were dissolved in 100% DMSO and serially diluted 3 fold in a polypropylene 96-well microtiter plate (drug plate). Columns 6 and 12 were reserved as controls (HI controls and LO controls respectively) and contained only DMSO. 10 μL of LPS followed by one microliter of inhibitor compound from the drug plate was transferred to the cell plate. The treated cells were induced to synthesize and secrete TNF-α in a 37° C. humidified incubator with 5% CO2 for 3 hours. Fifty microliters of conditioned media was transferred to a 96-well MULTI-ARRAY™ 96-well small spot plate—custom coated with MAB610 containing 100 μL of 2× Read Buffer P supplemented with 0.34 nM AF210NA polyclonal Ab labeled with ruthenium (MSD-Sulfo-TAG™—NHS ester). After an overnight incubation at room temperature with shaking, the reaction was read on the Sector Imager™ 6000. […] The amount of secreted TNF-α in the presence of AMG compounds compared with that in the presence of DMSO vehicle alone (HI control) was calculated using the formula: % control (POC)=(cpd−average LO)/(average HI−averageLO)*100. Data (consisting of POC and inhibitor concentration in μM) was fitted to a 4-parameter equation (y=A+((B−A)/(1+((x/C)^D))), where A is the minimum y (POC) value, B is the maximum y (POC), C is the x (cpd concentration) at the point of inflection and D is the slope factor) using a Levenburg-Marquardt non-linear regression algorithm.

Where [3] appears, read: 50% human whole blood, TNF-α (1 nM final) induced IL-8, 16-18 hours, read-out: WB TNF/IL8 IC50.
[4] abbreviates: Homo sapiens, read-out: IC50, TNF-α induced IL-8 in 50% human whole blood.

recombinant human p38α, sequence (Q16539 whole entry): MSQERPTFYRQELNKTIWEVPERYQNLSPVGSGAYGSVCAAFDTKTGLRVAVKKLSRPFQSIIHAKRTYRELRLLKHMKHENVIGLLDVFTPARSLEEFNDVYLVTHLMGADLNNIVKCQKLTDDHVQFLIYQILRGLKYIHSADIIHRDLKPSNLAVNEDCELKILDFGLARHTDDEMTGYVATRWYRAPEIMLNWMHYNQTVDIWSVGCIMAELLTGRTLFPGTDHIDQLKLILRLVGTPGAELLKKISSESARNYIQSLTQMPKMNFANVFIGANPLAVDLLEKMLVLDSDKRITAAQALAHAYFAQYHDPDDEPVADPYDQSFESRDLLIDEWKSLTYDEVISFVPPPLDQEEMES

For the compound `Cc1ccc2c(NC3CC3)noc2c1-c1nc2cnn(-c3c(F)cccc3F)c2n(C)c1=O` [Example 9, 5-(3-(cyclopropylamino)-6-methyl-1,2-benzisoxazol-7-yl)-1-(2,6-difluorophenyl)-7-methyl-1,7-dihydro-6H-pyrazolo[3,4-b]pyrazin-6-one], in assay [1] (setting [3]), the IC50 came out at 8 nM.
For the compound `CNc1noc2c(-c3nc4cnn(-c5ccc(F)cc5F)c4n(C)c3=O)c(C)ccc12` [Example 2, 1-(2,4-difluorophenyl)-7-methyl-5-(6-methyl-3-(methylamino)benzo[d]isoxazol-7-yl)-1H-pyrazolo[4,3-b]pyrazin-6(7H)-one], the IC50 at recombinant human p38α was 28.5 nM; in assay [1] (setting [4]), ≤ 100 nM; in assay [2], ≤ 100 nM.
Turning to `Cc1ccc2c(NC3CC3)noc2c1-c1cc2cnn(-c3cc(F)ccc3F)c2n(C)c1=O` [Example 6, 5-(3-(cyclopropylamino)-6-methyl-1,2-benzisoxazol-7-yl)-1-(2,5-difluorophenyl)-7-methyl-1,7-dihydro-6H-pyrazolo[3,4-b]pyridin-6-one], the IC50 was 8.9 nM on recombinant human p38α, 1.6 nM in assay [1] (setting [3]), ≤ 100 nM in assay [1] (setting [4]) and ≤ 100 nM in assay [2].
Take `Cc1ccc2c(NC3CC3)noc2c1-c1cc2cnn(-c3ccc(F)cc3F)c2n(C)c1=O` [Example 8, 5-(3-(cyclopropylamino)-6-methyl-1,2-benzisoxazol-7-yl)-1-(2,4-difluorophenyl)-7-methyl-1,7-dihydro-6H-pyrazolo[3,4-b]pyridin-6-one]: the IC50 on recombinant human p38α was 4.4 nM; in assay [1] (setting [3]), 1.8 nM; in assay [1] (setting [4]), ≤ 100 nM; in assay [2], ≤ 100 nM.
As for `Cc1ccc2c(NC3CC3)noc2c1-c1nc2cnn(-c3ccc(F)cc3F)c2n(C)c1=O` [Example 10, 5-(3-(cyclopropylamino)-6-methyl-1,2-benzisoxazol-7-yl)-1-(2,4-difluorophenyl)-7-methyl-1,7-dihydro-6H-pyrazolo[3,4-b]pyrazin-6-one], in assay [1] (setting [3]), the IC50 was determined as 8.9 nM.
Turning to `CCn1c(=O)c(-c2c(C)ccc3c(NC4CC4)noc23)cc2cnn(-c3ccccc3F)c21` [Example 7, 5-(3-(cyclopropylamino)-6-methyl-1,2-benzisoxazol-7-yl)-7-ethyl-1-(2-fluorophenyl)-1,7-dihydro-6H-pyrazolo[3,4-b]pyridin-6-one], the IC50 on recombinant human p38α was 2 nM; in assay [1] (setting [3]), 1.3 nM; in assay [1] (setting [4]) it was ≤ 100 nM; in assay [2] it was ≤ 100 nM.
